Legend:
MALME-3M (Melanoma) = test: NCI-60 screen (SRB, 48 h); conditions: Homo sapiens
HCT-116 (Colon cancer) = test: NCI-60 screen (SRB, 48 h); conditions: Homo sapiens
Prostate cancer subpanel = test: NCI-60 screen, subpanel; conditions: Homo sapiens
Leukemia subpanel = test: cells; conditions: Homo sapiens
UACC-62 (Melanoma) = test: NCI-60 screen (SRB, 48 h); conditions: Homo sapiens
[1] = test system: A549/ATCC (NSC lung cancer); test: NCI-60 screen (SRB, 48 h); conditions: Homo sapiens
MCF7 (Breast cancer) = test: NCI-60 screen (SRB, 48 h); conditions: Homo sapiens
LOX IMVI (Melanoma) = test: NCI-60 screen (SRB, 48 h); type: cell-based; conditions: Homo sapiens
TK-10 (Renal cancer) = test: NCI-60 screen (SRB, 48 h); conditions: Homo sapiens
PC-3 (Prostate cancer) = test: NCI-60 screen (SRB, 48 h); conditions: Homo sapiens
U251 (CNS cancer) = test: NCI-60 screen (SRB, 48 h); conditions: Homo sapiens
RXF 393 (Renal cancer) = test: NCI-60 screen (SRB, 48 h); conditions: Homo sapiens
[2] = test system: MDA-MB-31/ATCC (Breast cancer); test: NCI-60 screen (SRB, 48 h); conditions: Homo sapiens
KM12 (Colon cancer) = test: NCI-60 screen (SRB, 48 h); conditions: Homo sapiens
SN12C (Renal cancer) = test: NCI-60 screen (SRB, 48 h); conditions: Homo sapiens
SNB-19 (CNS cancer) = test: NCI-60 screen (SRB, 48 h); conditions: Homo sapiens
K-562 (Leukemia) = test: NCI-60 screen (SRB, 48 h); conditions: Homo sapiens
SK-MEL-2 (Melanoma) = test: NCI-60 screen (SRB, 48 h); conditions: Homo sapiens
[3] = test system: NCI/ADR-RES (Ovarian cancer); test: NCI-60 screen (SRB, 48 h); conditions: Homo sapiens
[4] = test system: NIH 3T3 (non-malignant mouse fibroblasts); test: SRB cytotoxicity assay, 72 h; type: cell-based; conditions: NIH 3T3, 72 h, cut-off 30 µM
Experimental: The cytotoxicity of compounds 1–20 was evaluated by means of a colorimetric sulforhodamine B (SRB) assay. For all compounds, the EC50 values were determined for the human tumor cell lines A375 (malignant melanoma), HT29 (colorectal carcinoma), MCF-7 (breast carcinoma), A2780 (ovarian carcinoma), FaDu (hypopharyngeal carcinoma), and NIH 3T3 (non-malignant mouse fibroblasts).
In short, exponentially growing cells were seeded into 96-well plates on day 0 at the appropriate cell densities to prevent confluence of the cells during the period of experiment. After 24 h, the cells were treated with serial dilutions of the compounds (0–30 µM) for 72 h. The final concentration of DMSO never exceeded 0.5%, which was non-toxic to the cells. After a 72 h treatment, the supernatant medium from the 96-well plates was discarded, and the cells were fixed with 10% TCA. For a thorough fixation, the plates were allowed to rest at 4 °C. After fixation, the cells were washed in a strip washer. The washing was done four times with water using alternate dispensing and aspiration procedures. The plates were then dyed with 100 µL of 0.4% SRB for about 20 min. After dying, the plates were washed with 1% acetic acid to remove the excess of the dye and allowed to air-dry overnight. Tris base solution (200 µL, 10 mM) was added to each well and absorbance was measured at λ = 570 nm (using a 96 well plate reader, Tecan Spectra, Crailsheim, Germany). The percentages of surviving cells relative to untreated controls were determined.

HCT-15 (Colon cancer) = test: NCI-60 screen (SRB, 48 h); conditions: Homo sapiens
HS 578T (Breast cancer) = test: NCI-60 screen (SRB, 48 h); conditions: Homo sapiens

`CC1(C)CC[C@]2(CO)CC[C@]3(C)C(=CC[C@@H]4[C@@]5(C)CCCNC(C)(C)[C@@H]5CC[C@]43C)[C@@H]2C1` [Compound 3, azepanoerythrodiol] gave a GI50 (MALME-3M (Melanoma)) of 2.02 µM, an IC (TGI) (MALME-3M (Melanoma); 48 h, read-out: TGI) of 3.56 µM and a CC50 (MALME-3M (Melanoma); read-out: LC50) of 6.27 µM. For the same molecule, the GI50 (HCT-116 (Colon cancer); HCT-116) was 1.64 µM, the activity at 10 µM (HCT-116 (Colon cancer); HCT-116, 48 h, read-out: Growth % of the Most Sensitive Cell Lines) was -85.8% and the IC (TGI) (HCT-116 (Colon cancer); HCT-116, 48 h, read-out: TGI) was 3.11 µM. The CC50 (HCT-116 (Colon cancer); HCT-116, read-out: LC50) was 5.92 µM, the IC (TGI) (Prostate cancer subpanel; 48 h, read-out: TGI MG_MID) was 4.02 µM and the GI50 (Prostate cancer subpanel; read-out: GI50 MG_MID) was 1.89 µM. For the same molecule, the CC50 (Prostate cancer subpanel; read-out: LC50 MG_MID) was 8.54 µM, the IC (TGI) (Leukemia subpanel; 48 h, read-out: TGI MG_MID) was 54.8 µM and the GI50 (Leukemia subpanel; read-out: GI50 MG_MID) was 2.03 µM. The CC50 (Leukemia subpanel; read-out: LC50 MG_MID) was over 100 µM, the GI50 (UACC-62 (Melanoma); UACC-62) was 1.92 µM and the IC (TGI) (UACC-62 (Melanoma); UACC-62, 48 h, read-out: TGI) was 3.93 µM. For the same molecule, the CC50 (UACC-62 (Melanoma); UACC-62, read-out: LC50) was 8.07 µM, the GI50 ([1]; A549) was 4.62 µM and the IC (TGI) ([1]; A549, 48 h, read-out: TGI) was 17.8 µM. The CC50 ([1]; A549, read-out: LC50) was 52.4 µM, the GI50 (MCF7 (Breast cancer); MCF7) was 2.16 µM and the IC (TGI) (MCF7 (Breast cancer); MCF7, 48 h, read-out: TGI) was 5.54 µM. For the same molecule, the CC50 (MCF7 (Breast cancer); MCF7, read-out: LC50) was 22.7 µM, the IC (TGI) (LOX IMVI (Melanoma); 48 h) was 3.19 µM and the activity at 10 µM (LOX IMVI (Melanoma); 48 h, 1 dose 10 µM, read-out: Growth % of the Most Sensitive Cell Lines) was -88.2%. It also gave a GI50 (LOX IMVI (Melanoma); read-out: GI50) of 1.68 µM, a CC50 (LOX IMVI (Melanoma); read-out: LC50 (the source's name)) of 6.05 µM and a GI50 (TK-10 (Renal cancer); TK-10) of 4.64 µM. It also gave an IC (TGI) (TK-10 (Renal cancer); TK-10, 48 h, read-out: TGI) of 16.7 µM, a CC50 (TK-10 (Renal cancer); TK-10, read-out: LC50) of 49.9 µM and a GI50 (PC-3 (Prostate cancer); PC-3) of 1.48 µM. The IC (TGI) (PC-3 (Prostate cancer); PC-3, 48 h, read-out: TGI) was 3.33 µM, the CC50 (PC-3 (Prostate cancer); PC-3, read-out: LC50) was 7.47 µM and the GI50 (U251 (CNS cancer); U-251) was 1.94 µM. For the same molecule, the IC (TGI) (U251 (CNS cancer); U-251, 48 h, read-out: TGI) was 4.18 µM, the CC50 (U251 (CNS cancer); U-251, read-out: LC50) was 9 µM and the GI50 (RXF 393 (Renal cancer); RXF 393) was 2.88 µM. For the same molecule, the IC (TGI) (RXF 393 (Renal cancer); RXF 393, 48 h, read-out: TGI) was 11.7 µM, the CC50 (RXF 393 (Renal cancer); RXF 393, read-out: LC50) was 48.6 µM and the GI50 [2] was 3.5 µM. It also gave an IC (TGI) ([2]; 48 h, read-out: TGI) of 13 µM, a CC50 ([2]; read-out: LC50) of 45.6 µM and a GI50 (KM12 (Colon cancer); KM12) of 2.07 µM. The IC (TGI) (KM12 (Colon cancer); KM12, 48 h, read-out: TGI) was 4.26 µM, the CC50 (KM12 (Colon cancer); KM12, read-out: LC50) was 8.78 µM and the GI50 (SN12C (Renal cancer)) was 4.02 µM. For the same molecule, the IC (TGI) (SN12C (Renal cancer); 48 h, read-out: TGI) was 16.8 µM, the CC50 (SN12C (Renal cancer); read-out: LC50) was 45.6 µM and the GI50 (SNB-19 (CNS cancer); SNB-19) was 11.7 µM. The IC (TGI) (SNB-19 (CNS cancer); SNB-19, 48 h, read-out: TGI) was 2.61 µM, the CC50 (SNB-19 (CNS cancer); SNB-19, read-out: LC50) was 58.1 µM and the GI50 (K-562 (Leukemia); K562) was 0.4 µM. For the same molecule, the IC (TGI) (K-562 (Leukemia); K562, 48 h, read-out: TGI) was over 100 µM, the CC50 (K-562 (Leukemia); K562, read-out: LC50) was over 100 µM and the GI50 (SK-MEL-2 (Melanoma); SK-MEL-2) was 3.25 µM. It also gave an IC (TGI) (SK-MEL-2 (Melanoma); SK-MEL-2, 48 h, read-out: TGI) of 8.17 µM, a CC50 (SK-MEL-2 (Melanoma); SK-MEL-2, read-out: LC50) of 36.7 µM and a GI50 [3] of 10.2 µM. For the same molecule, the IC (TGI) ([3]; 48 h, read-out: TGI) was 24 µM, the CC50 ([3]; read-out: LC50) was 56.3 µM and the EC50 [4] was “n.s”. For the same molecule, the GI50 (HCT-15 (Colon cancer); HCT-15) was 3.06 µM, the IC (TGI) (HCT-15 (Colon cancer); HCT-15, 48 h, read-out: TGI) was 1.04 µM and the CC50 (HCT-15 (Colon cancer); HCT-15, read-out: LC50) was 42.3 µM. The GI50 (HS 578T (Breast cancer)) was 6.16 µM, the IC (TGI) (HS 578T (Breast cancer); 48 h, read-out: TGI) was 24.7 µM and the CC50 (HS 578T (Breast cancer); read-out: LC50) was 77.4 µM.
